Results published in patent US20210047262A1, “2-(3,4-DIHYDROXYPHENYL)ETHYL 3-HYDROXYBUTANOATE, COMPOSITION, AND METHOD FOR IMPROVING FUNCTION OF AORTIC ENDOTHELIAL CELL” (XI'AN JIAOTONG UNIVERSITY, priority 2019, published 2021).

Experiments:
[1] = test system: interleukin-6 (IL-6); assay: IL-6 mRNA level detection (RT-PCR) in HAECs; assay type: cell-based, human; conditions: FIG. 2
Description: (§1) Human aortic endothelial cells (HAECs) were purchased from Shanghai Shanghai Bioleaf Biotech Co., Ltd. Palmitic acid (PA) was purchased from SIGMA Company. A palmitic acid solution having a concentration of 500 μM was prepared by dissolving palmitic acid in water. A cell culture incubator was adopted to culture the cells in a temperature-constant, humidified, sterile condition. The cells were cultured in wells of culture plates at an atmosphere of 95% air and 5% CO2 at 37° C. in the incubator. The experiments were performed on different experimental groups of cells.
The HAECs that were previously cultured in a 12-well cell culture plate were divided into 4 different experimental groups and respectively applied with HT-HB in different concentrations, 0 μM, 0 μM, 50 μM, 100 μM, all followed with an 24-hour incubation. Then, the last 3 groups of cells were respectively applied with 500 μM palmitic acid, the first was not, all followed with another 24-hour incubation. The detecting of mRNA levels corresponding to interleukin-6 (IL-6) was respectively carried out on each group of cells by using reverse transcription RNA and real-time quantitative polymerase chain reaction (PCR), and the specific method is as follows:
The medium for cell culture in the wells was removed. […] The concentration of the solution was measured by an ultraviolet spectrophotometer. […]

[2] = test system: mitochondrial complex I; assay: Protein detection by Western blot in HAECs, mitochondrial complex I; assay type: cell-based, human; conditions: FIG. 3A, 3B
Description: as §1
The HAECs that were previously cultured in a 6-well cell culture plate were divided into 3 different experimental groups, the control (Ctrl) group, the PA group, and the HT-HB+PA group. The cells of the HT-HB+PA group were applied with HT-HB in a concentration of 100 µM followed with an 24-hour incubation. […]
The medium for cell culture in the wells was removed. […] The supernatants were collected, and the proteins therein were quantified by bicinchoninic acid (BCA) assay, and normalized. […]
10 μg of the extracted proteins were subjected to gel electrophoresis with 10% acrylamide gel, and electrophoretic transferred onto a PVDF membrane, which were blocked, and incubated with a primary antibody at 4° C. overnight, free primary antibody was washed away. […] Target proteins were detected by chemiluminescence.

[3] = test system: mitochondrial complex II; assay: Protein detection by Western blot in HAECs, mitochondrial complex II; assay type: cell-based, human; conditions: 500 μM palmitic acid 24 h, vs control, FIG. 3A, 3B
Description: Human aortic endothelial cells (HAECs) were purchased from Shanghai Shanghai Bioleaf Biotech Co., Ltd. Palmitic acid (PA) was purchased from SIGMA Company. A palmitic acid solution having a concentration of 500 μM was prepared by dissolving palmitic acid in water. A cell culture incubator was adopted to culture the cells in a temperature-constant, humidified, sterile condition. The cells were cultured in wells of culture plates at an atmosphere of 95% air and 5% CO2 at 37° C. in the incubator. The experiments were performed on different experimental groups of cells. The HAECs that were previously cultured in a 6-well cell culture plate were divided into 3 different experimental groups, the control (Ctrl) group, the PA group, and the HT-HB+PA group. The cells of the HT-HB+PA group were applied with HT-HB in a concentration of 100 µM followed with an 24-hour incubation. Then, the cells of both the PA group and the HT-HB+PA group were applied with 500 μM palmitic acid, all followed with another 24-hour incubation. The protein detection was respectively carried out on each group of cells as follows. The medium for cell culture in the wells was removed. […] The supernatants were collected, and the proteins therein were quantified by bicinchoninic acid (BCA) assay, and normalized. […] Target proteins were detected by chemiluminescence.

[4] = test system: Human aortic endothelial cells (HAECs); assay: MTT assay, cell viability of HAECs; assay type: cell-based; conditions: FIG. 1
Description: as §1
The HAECs that were previously cultured in a 12-well cell culture plates were divided into 6 different experimental groups and respectively applied with HT-HB in different concentrations, 0 μM, 1 μM, 10 μM, 50 μM, 100 μM, and 200 μM, all followed with an 24-hour incubation. Then, each of the 6 groups of cells was further divided into two sub groups, one was applied with 500 µM palmitic acid, the other was not, all followed with another 24-hour incubation.
An MTT assay was performed to all groups of cells. […] The absorbance was measured at a wavelength of 490 nm in a spectrophotometer. The absorbance of this colored solution can be quantified by measuring at a certain wavelength (usually between 500 and 600 nm) by a spectrophotometer.

Row | Compound | increase of mRNA level corresponding to IL-6 ([1]; HAECs, 500 μM palmitic acid 24 h, vs control group) | relative protein expression level of mitochondrial complex I ([2]; 500 μM palmitic acid 24 h, vs control) | relative protein expression level of mitochondrial complex II [3] | relative cell viability ([4]; HAECs not treated with palmitic acid, HT-HB 1 μM to 100 μM, vs cells without HT-HB (control)) | relative cell viability ([4]; HAECs pretreated with HT-HB 1 μM to 100 μM for 24 h, then 500 µM palmitic acid 24 h, vs palmitic acid treated cells without HT-HB) | mRNA level corresponding to IL-6 ([1]; HAECs pretreated with HT-HB 100 M for 24 h, then 500 μM palmitic acid 24 h) | relative protein expression level of mitochondrial complex I ([2]; HT-HB 100 M 24 h, then 500 μM palmitic acid 24 h, vs PA group)
1 | CCCCCCCCCCCCCCCC(=O)O [palmitic acid, reference compound] | about 10 times | reducing the expression | reducing the expression |  |  |  | 
2 | CC(O)CC(=O)OCCc1ccc(O)c(O)c1 (stereo not shown) [HT-HB, 2-(3,4-dihydroxyphenyl)ethyl 3-hydroxybutanoate] |  |  |  | higher viabilities | higher viabilities | significantly decreased | significantly increasing the expression
